Measurements as given in ChEMBL document CHEMBL1201862, “PubChem BioAssay data set” (2004).
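1) Cells in 96-well plates. 2) Compound, 48 h, 5 concentrations. 3) Linear interpolation between surrounding doses. 4) Unreached endpoint = highest concentration. GI50 = concentration required for 50% inhibition of growth.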 The source made the active and inactive calls. Rule as the data show it: active = GI50 up to about 1.1 µM and inactive = higher.

Assays:
Test in all cases: NCI anticancer screen, dose series, 48 h
SK-MEL-2 = system: SK-MEL-2
SNB-75 = system: SNB-75
DMS-114 = system: DMS-114
K562 = system: K562
DMS-273 = system: DMS-273
COLO 205 = system: COLO 205
OVCAR-3 = system: OVCAR-3
EKVX = system: EKVX
DLD-1 = system: DLD-1
UACC-257 = system: UACC-257
HOP-18 = system: HOP-18
NCI-H460 = system: NCI-H460
SR = system: SR
SN12C = system: SN12C
CAKI-1 = system: CAKI-1
DU-145 = system: DU-145
CCRF-CEM = system: CCRF-CEM
MDA-N = system: MDA-N
XF498 = system: XF498
HCT-15 = system: HCT-15
Malme-3M = system: Malme-3M
U-251 = system: U-251
IGROV-1 = system: IGROV-1
KM12 = system: KM12
HOP-92 = system: HOP-92
LOX IMVI = system: LOX IMVI
SF-295 = system: SF-295
PC-3 = system: PC-3
NCI-H23 = system: NCI-H23
NCI-H522 = system: NCI-H522
HT-29 = system: HT-29
M14 = system: M14
HOP-62 = system: HOP-62
SK-MEL-5 = system: SK-MEL-5
A549 = system: A549
OVCAR-4 = system: OVCAR-4
BT-549 = system: BT-549
M19-MEL = system: M19-MEL
SK-OV-3 = system: SK-OV-3
OVCAR-5 = system: OVCAR-5
HL-60 = system: HL-60
MCF7 = system: MCF7
RPMI-8226 = system: RPMI-8226
SK-MEL-28 = system: SK-MEL-28
MDA-MB-435 = system: MDA-MB-435
786-0 = system: 786-0
RXF 393 = system: RXF 393
MOLT-4 = system: MOLT-4
SNB-78 = system: SNB-78
KM-20L2 = system: KM-20L2
SF-268 = system: SF-268
SF-539 = system: SF-539
TK-10 = system: TK-10
SW-620 = system: SW-620
A498 = system: A498
MDA-MB-231 = system: MDA-MB-231
ACHN = system: ACHN
SNB-19 = system: SNB-19
HCT-116 = system: HCT-116
Hs-578T = system: Hs-578T
HCC 2998 = system: HCC 2998
NCI-H226 = system: NCI-H226
UACC-62 = system: UACC-62
UO-31 = system: UO-31
T47D = system: T47D
NCI/ADR-RES = system: NCI/ADR-RES
OVCAR-8 = system: OVCAR-8

Measured: GI50

CO[C@H]1Nc2c(ccc(C)c2O)C(=O)N2C=C(/C=C/C(N)=O)C[C@@H]12 [ANTHRAMYCIN METHYL ETHER]
28.2 nM: HCT-15
active: SK-MEL-2 15.1 nM | SNB-75 22.8 nM | DMS-114 21.3 nM | K562 39.6 nM | DMS-273 29.5 nM | COLO 205 31.6 nM | OVCAR-3 51.6 nM | EKVX 46.2 nM | DLD-1 118 nM | UACC-257 59.6 nM | HOP-18 444 nM | NCI-H460 32.2 nM | SR < 23.4 nM | SN12C 22.1 nM | CAKI-1 47 nM | DU-145 37.7 nM | CCRF-CEM 19.3 nM | MDA-N 13.3 nM | XF498 < 10 nM | Malme-3M 26.1 nM | U-251 16.2 nM | IGROV-1 35.8 nM | KM12 30.3 nM | HOP-92 25.8 nM | LOX IMVI 16.1 nM | SF-295 19.9 nM | PC-3 21.5 nM | NCI-H23 32.7 nM | NCI-H522 22.2 nM | HT-29 25.6 nM | M14 14.3 nM | HOP-62 18.6 nM | SK-MEL-5 16.8 nM | A549 33.1 nM | OVCAR-4 52 nM | BT-549 14.3 nM | M19-MEL 26.9 nM | SK-OV-3 40.5 nM | OVCAR-5 54.1 nM | HL-60 43.6 nM | MCF7 38.9 nM | RPMI-8226 24.2 nM | SK-MEL-28 29.9 nM | MDA-MB-435 14 nM | 786-0 16.3 nM | RXF 393 29.6 nM | MOLT-4 27.6 nM | SNB-78 25.8 nM | KM-20L2 184 nM | SF-268 18.3 nM | SF-539 18.5 nM | TK-10 58.5 nM | SW-620 30.8 nM | A498 183 nM | MDA-MB-231 15.9 nM | ACHN 18.1 nM | SNB-19 < 17.9 nM | HCT-116 38.2 nM | Hs-578T 10.3 nM | HCC 2998 43.6 nM | NCI-H226 128 nM | UACC-62 15.1 nM | UO-31 17.5 nM | T47D 495 nM | NCI/ADR-RES 31.5 nM | OVCAR-8 39.4 nM
